Experimental findings from patent publication US8318731B2, “Pyrrolopyrimidines” (Janssen Pharmaceutica NV, priority 2007, dated 2012) are described below.

For experiment [1], the target named is T1, PLK4 (h) (Homo sapiens, UniProt O00444).
T1 sequence (O00444 1-970): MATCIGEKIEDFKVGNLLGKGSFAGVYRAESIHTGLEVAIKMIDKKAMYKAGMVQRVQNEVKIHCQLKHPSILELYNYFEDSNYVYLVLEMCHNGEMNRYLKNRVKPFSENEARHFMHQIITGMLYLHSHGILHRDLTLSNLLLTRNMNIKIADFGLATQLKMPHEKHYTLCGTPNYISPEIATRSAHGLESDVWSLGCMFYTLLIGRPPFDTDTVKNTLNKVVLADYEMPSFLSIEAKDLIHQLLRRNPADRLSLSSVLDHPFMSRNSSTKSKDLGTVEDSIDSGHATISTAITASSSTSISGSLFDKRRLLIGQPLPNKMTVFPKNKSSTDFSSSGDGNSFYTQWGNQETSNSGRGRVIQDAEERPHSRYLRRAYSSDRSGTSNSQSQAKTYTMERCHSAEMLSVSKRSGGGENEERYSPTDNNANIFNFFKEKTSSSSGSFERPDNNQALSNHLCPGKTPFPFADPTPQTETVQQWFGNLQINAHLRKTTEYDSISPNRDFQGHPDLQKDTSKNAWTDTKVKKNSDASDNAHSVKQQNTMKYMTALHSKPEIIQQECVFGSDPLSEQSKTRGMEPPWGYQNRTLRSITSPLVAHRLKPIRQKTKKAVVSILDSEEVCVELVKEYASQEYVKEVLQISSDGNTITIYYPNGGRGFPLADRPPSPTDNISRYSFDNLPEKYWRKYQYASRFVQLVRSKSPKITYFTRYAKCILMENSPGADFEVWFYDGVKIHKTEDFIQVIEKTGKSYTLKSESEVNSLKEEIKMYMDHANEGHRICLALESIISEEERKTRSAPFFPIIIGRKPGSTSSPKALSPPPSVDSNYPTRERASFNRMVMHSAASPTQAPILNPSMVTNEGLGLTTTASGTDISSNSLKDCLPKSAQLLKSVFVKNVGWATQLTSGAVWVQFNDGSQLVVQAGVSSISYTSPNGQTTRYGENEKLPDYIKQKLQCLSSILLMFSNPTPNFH
As to the kind of experiment: PLK-4 human kinase scintillation proximity assay (SPA). It counts as biochemical. As to conditions: 1 μM ATP, 60 minutes at r.t., read-out: PLK4 pIC50 (converted). On the procedure:
The in vitro inhibition of a panel of kinases was assessed using either the scintillation proximity assay (SPA) as described by Cook, N. D. et al., Advances in Experimental Medicine and Biology (1991), 36; p. 525-528.
In the SPA technology the activity of the kinase of interest is measured using an appropriate biotinylated substrate that is incubated with the aforementioned kinase protein in the presence of (^33P) radiolabeled ATP. (^33P) Phosphorylation of the substrate is subsequently measured through binding of the phosphorylated substrate to streptavidine coated beads that are based on the scintillant poly(vinyl toluene) (PVT-Beads). The scintillation intensity is detected by imaging on Leadseeker.
All kinases are pre-diluted to a 10× working concentration prior to addition into the assay. The composition of the dilution buffer for each kinase is detailed below.
In a final reaction volume of 30 μl, PLK4 (h) (19 μg/ml) is incubated with 50 mM Hepes pH 8.0, 10 mM MgCl2, 50 mM NaCl, 1 mM NaF, 1 mM DTT, 10 μM of peptide Biotin-RPRGQRDSSYYWE-OH, 1 μM ATP and 2 nM [γ-^33P-ATP] (6.0 μCi/ml). After incubation of 60 minutes at r.t., the reaction is stopped by addition of 40 μL of stop solution containing 8.7 mM EDTA, BSA 0.17%, 0.17% Triton X-100, 1.7 mg/ml SPA beads (GE-healthcare). The plate is centrifuged and read for Scintillation imaging on Leadseeker.
On the technique in general: Scintillation proximity formats need no separation of bound from free tracer.

Experiment [2] concerns MDA-MB-231. As to the kind of experiment: Cellular proliferation assay (Alamar blue), MDA-MB-231. Conditions: Homo sapiens, MDA-MB-231, MDA-MB-231 cells; 10% FCS; 72 h with compound; Alamar blue 24 h; read-out: pIC50 MDA/MB231 (converted). It counts as cell-based. On the procedure:
(§1) Cellular proliferation of these compounds was tested on a panel of different cell lines in the presence of 10% FCS serum (37° C. and 5% (v/v) CO2). In a first step these cells were seeded and incubated for 24 hours in the absence of compound. In the second step the cells were incubated for 72 hours with the compounds to be tested for 72 hours. The viable cell number was finally assessed in a standard Alamar blue cell viability assay.
(§2) The viable cell number was assessed by incubation for either 4 h (HCT-116, H1299) 6 h (U87-MG) or 24 h (A2780, PC3, MDA-MB-231) with Alamar blue (Resazurin 9 μg/ml, K-Ferrocyanide 90 μM, K-Ferricyanide 90 μM) and the converted fluorescent product was quantified on a fluorescent plate readed (544 nm/590 nm). Effect of the compounds is calculated as of on control cells.
For orientation: The colour change of resazurin is a common sign of viable cells or microbes.

Experiment [3] concerns H1299. The experiment in a line: Cellular proliferation assay (Alamar blue), H1299. In kind it is cell-based. Conditions: Homo sapiens, NCI-H1299, H1299 cells; 10% FCS; 72 h with compound; Alamar blue 4 h; read-out: pIC50 H1299 (converted). On the procedure:
as §1, §2

Experiment [4] deals with A2780. The experiment in a line: Cellular proliferation assay (Alamar blue), A2780. It counts as cell-based. As to conditions: Homo sapiens, A2780, A2780 cells; 10% FCS; 72 h with compound; Alamar blue 24 h; read-out: pIC50 A2780 (converted). On the procedure:
as §1, §2

Experiment [5] relates to PC3. The experiment in a line: Cellular proliferation assay (Alamar blue), PC3. It counts as cell-based. Conditions: Homo sapiens, PC-3, PC-3 cells; 10% FCS; 72 h with compound; Alamar blue 24 h; read-out: pIC50 PC-3 (converted). On the procedure:
as §1, §2

Experiment [6] has as its system U87-MG. As to the kind of experiment: Cellular proliferation assay (Alamar blue), U87-MG. In kind it is cell-based. Conditions: Homo sapiens, U-87 MG; U87-MG cells; 10% FCS; 72 h with compound; Alamar blue 6 h; read-out: pIC50 U87MG (converted). On the procedure: as §1, §2
Experiment [7] deals with HCT-116. The experiment in a line: Cellular proliferation assay (Alamar blue), HCT-116. In kind it is cell-based. As to conditions: Homo sapiens; HCT-116 cells; 10% FCS; 72 h with compound; Alamar blue 4 h; read-out: pIC50 HCT-116 (converted). On the procedure:
as §1, §2

A value given as a limit tells only on which side of the number the result lay.

Consider `CN1CCN(C)C(=O)CCCCOc2cccc(c2)Nc2ncnc3[nH]cc(c23)C1` [Compound 2], for which the IC50 in experiment [1] was 3.16 µM; in experiment [2] it was greater than 10 µM; in experiment [3] it was greater than 10 µM; in experiment [4], greater than 10 µM; in experiment [5], greater than 10 µM; in experiment [6], greater than 10 µM. Further, in experiment [7], the IC50 was greater than 10 µM.
As for `COc1ccc2cc1OCC(=O)N[C@H](CO)CN(C)CCCc1c[nH]c3ncnc(c13)N2` [Compound 3], the IC50 in experiment [1] was 1.58 µM; in experiment [2], greater than 10 µM; in experiment [3], greater than 10 µM; in experiment [4], greater than 10 µM; in experiment [5], greater than 10 µM; in experiment [6], greater than 10 µM. In experiment [7], the IC50 was greater than 10 µM.
On to `COc1ccc2cc1CN(C)CCC(=O)N(C)CCCc1c[nH]c3ncnc(c13)N2` [Compound 4], for which the IC50 in experiment [1], in experiment [2], in experiment [3], in experiment [4], in experiment [5] and in experiment [6] was greater than 10 µM throughout. For the same compound, the IC50 in experiment [7] is greater than 10 µM.
For the compound `COc1ccc2cc1CN(C)CCCC(=O)N(C)CCCc1c[nH]c3ncnc(c13)N2` [Compound 5], the IC50 in experiment [1], in experiment [2], in experiment [3], in experiment [4], in experiment [5] and in experiment [6] was greater than 10 µM each time. In addition, the IC50 in experiment [7] is greater than 10 µM.
Consider `COc1ccc2cc1OCCCNC(=O)CN(C)Cc1c[nH]c3ncnc(c13)N2` [Compound 6], for which the IC50 in experiment [1] was 0.501 µM; in experiment [2] it was 5.01 µM; in experiment [3], 1.58 µM; in experiment [4], 1.58 µM; in experiment [5], 3.98 µM; in experiment [6], 1.58 µM. In addition, the IC50 in experiment [7] was 1.26 µM.
On to `CN1CCN(C)C(=O)CN(C)C(=O)CCc2cccc(c2)Nc2ncnc3[nH]cc(c23)C1` [Compound 8], for which the IC50 in experiment [1], in experiment [2], in experiment [3], in experiment [4], in experiment [5] and in experiment [6] was greater than 10 µM in each case. For the same compound, the IC50 in experiment [7] was greater than 10 µM.
Regarding `COc1ccc2cc1OCC(=O)N(C(C)C)CCCN(C)Cc1c[nH]c3ncnc(c13)N2` [Compound 12], the IC50 in experiment [1] is 0.0794 µM; in experiment [2] it was greater than 10 µM; in experiment [3] it was greater than 10 µM; in experiment [4], 5.01 µM; in experiment [5] it was greater than 10 µM; in experiment [6], 6.31 µM. The IC50 in experiment [7] is 7.94 µM.
Consider `CN1CCCN(C)C(=O)COc2cc(ccc2NC(=O)NC2CCCCC2)Nc2ncnc3[nH]cc(c23)C1` [Compound 13], for which the IC50 in experiment [1] was 0.0251 µM; in experiment [2], greater than 10 µM; in experiment [3], 3.98 µM; in experiment [4], 1 µM; in experiment [5], greater than 10 µM; in experiment [6], 3.98 µM. Also, the IC50 in experiment [7] was 2 µM.
In the case of `CN1CCCN(C)C(=O)COc2cc(ccc2Cl)Nc2ncnc3[nH]cc(c23)C1` [Compound 14], the IC50 in experiment [1] was 0.0501 µM; in experiment [2], greater than 10 µM; in experiment [3] it was greater than 10 µM; in experiment [4], 3.98 µM; in experiment [5], greater than 10 µM; in experiment [6] it was 0.794 µM. Also, the IC50 in experiment [7] was 0.631 µM.
`COc1ccc(NC(=O)Nc2ccc3cc2OCC(=O)N(C)CCCN(C)Cc2c[nH]c4ncnc(c24)N3)cc1` [Compound 15]: the IC50 in experiment [1] is 0.0251 µM; in experiment [2], greater than 10 µM; in experiment [3], greater than 10 µM; in experiment [4] it was 0.794 µM; in experiment [5], greater than 10 µM; in experiment [6] it was 2 µM. Moreover, the IC50 in experiment [7] is 0.794 µM.
Take `COc1ccc2cc1OCCCCC(=O)N(C)CCCN(C)Cc1c[nH]c3ncnc(c13)N2` [Compound 16]: the IC50 in experiment [1] was 0.126 µM; in experiment [2], greater than 10 µM; in experiment [3] it was greater than 10 µM; in experiment [4], greater than 10 µM; in experiment [5], greater than 10 µM; in experiment [6] it was greater than 10 µM. Also, the IC50 in experiment [7] is greater than 10 µM.
For the compound `COc1ccc2cc1OCCCC(=O)N(C)CCCN(C)Cc1c[nH]c3ncnc(c13)N2` [Compound 17], the IC50 is 0.251 µM in experiment [1]; greater than 10 µM in experiment [2]; greater than 10 µM in experiment [3]; greater than 10 µM in experiment [4]; greater than 10 µM in experiment [5]; greater than 10 µM in experiment [6]. Besides, the IC50 in experiment [7] was greater than 10 µM.
Regarding `COc1ccc2cc1OCCCCCC(=O)N(C)CCCN(C)Cc1c[nH]c3ncnc(c13)N2` [Compound 18], the IC50 in experiment [1] is 0.398 µM; in experiment [2], greater than 10 µM; in experiment [3], greater than 10 µM; in experiment [4] it was greater than 10 µM; in experiment [5] it was greater than 10 µM; in experiment [6] it was greater than 10 µM. Also, the IC50 in experiment [7] is greater than 10 µM.
As to `CN1CCCN(C)C(=O)CCCCCOc2cc(ccc2Cl)Nc2ncnc3[nH]cc(c23)C1` [Compound 19], the IC50 was 0.316 µM in experiment [1]; greater than 10 µM in experiment [2]; greater than 10 µM in experiment [3]; greater than 10 µM in experiment [4]; greater than 10 µM in experiment [5]; greater than 10 µM in experiment [6]. The IC50 in experiment [7] was greater than 10 µM.
`CN1CCN(C)C(=O)CCc2cccc(c2)Nc2ncnc3[nH]cc(c23)C1` [Compound 20]: the IC50 is 0.631 µM in experiment [1]; greater than 10 µM in experiment [2]; 10 µM in experiment [3]; greater than 10 µM in experiment [4]; greater than 10 µM in experiment [5]; greater than 10 µM in experiment [6]. The IC50 in experiment [7] was 7.94 µM.
For `CN1CCCN(C)C(=O)CCc2cccc(c2)Nc2ncnc3[nH]cc(c23)C1` [Compound 21], the IC50 in experiment [1] is 0.501 µM; in experiment [2], 5.01 µM; in experiment [3] it was 2 µM; in experiment [4], 2 µM; in experiment [5], 3.98 µM; in experiment [6], 2 µM. Besides, the IC50 in experiment [7] is 1.58 µM.
